{"source": "paper PMC5493479", "about": "(Methods (San Diego, Calif.), 2016)", "target": "T1, HisRS (Histidyl-tRNA synthetase) (Escherichia coli, UniProt P60906)", "T1 sequence (P60906 2-424)": "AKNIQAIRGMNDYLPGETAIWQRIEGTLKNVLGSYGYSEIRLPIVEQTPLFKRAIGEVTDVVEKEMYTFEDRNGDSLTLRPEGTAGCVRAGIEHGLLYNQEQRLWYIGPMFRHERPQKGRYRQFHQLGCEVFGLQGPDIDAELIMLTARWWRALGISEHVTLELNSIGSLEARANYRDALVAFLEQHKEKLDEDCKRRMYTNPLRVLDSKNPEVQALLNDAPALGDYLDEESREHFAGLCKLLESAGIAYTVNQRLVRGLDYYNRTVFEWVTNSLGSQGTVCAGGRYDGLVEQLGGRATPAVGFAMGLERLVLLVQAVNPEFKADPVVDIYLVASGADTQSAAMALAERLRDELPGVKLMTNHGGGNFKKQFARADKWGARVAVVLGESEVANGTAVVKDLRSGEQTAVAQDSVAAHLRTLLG", "assay": "differential scanning fluorimetry", "type": "binding", "conditions": "10 mM ATP; apo Tm 53.4 ± 1.1 °C; 10 uM enzyme, 20 mM HEPES pH 7.5, 150 mM KCl"}
{"smiles": "Nc1ncnc2c1ncn2[C@@H]1O[C@H](COP(=O)(O)OP(=O)(O)OP(=O)(O)O)[C@@H](O)[C@H]1O", "note": "[ATP]", "values": [{"measurement": "ATP 10 mM Tm (°C)", "value": "55.8 ± 0.5", "unit": "°C"}]}
